Data taken from paper PMC4581228, “Membrane Affinity of Platensimycin and Its Dialkylamine Analogs” (International Journal of Molecular Sciences, 2015).

Experiments:
[1] = test system: Bacillus subtilis; conditions: cited from earlier work; for MIC for B. subtilis: cultures of Bacillus subtilis, ref 22 (table title); for Activity against B. subtilis: Gram-positive
[2] = test system: Bacillus subtilis; test: Minimal inhibitory concentration with cultures of Bacillus subtilis; assay type: cell-based; conditions: in experiments; organism not given
Source text: Principally, the efficacy of a drug depends on permeability (first selection), the degree of inhibition of the biological target, rates of drug efflux, drug breakdown, off target binding, and sequestration. In the case of platensimycin, the biological target is FabF. […] Details of docked conformations are presented in the Supplementary Figure S2A,B. Platensimycin and QD-11 show the same estimated binding affinity to FabF (C163Q) (PDB ID: 2GFX) and both are potent antibiotics. […] More specifically, platensimycin and myrtemycin were active against Gram-positive bacteria (S. aureus, MRSA; E. faecium, VRE and B. subtilis) and also Gram-negative bacteria, E. coli (but only when co-adminsitered with Phe-Arg-β-naphthylamide dihydrochloride, PAβND, which is a bacterial efflux pump inhibitor) as described in [18]. For the purpose of comparison with the computational docking predictions, here we present data for B. subtilis.
The bottom row in Table 1 presents minimal inhibitory concentrations (MIC) for all of the substances assayed with gram-positive and gram-negative bacteria. […] Despite the fact that the heterocyclic G271 partitioned into the membrane very well, and can be docked well into FabF, it had virtually no antimicrobial activity.

[3] = test system: A98S MscS in the cytoplasmic membrane of E. coli; test: Patch-clamp of A98S MscS in excised spheroplast patches (activation midpoint shift); conditions: for Redistribution / return of activation midpoint: within the observation time, Supplementary Figure S4; for log Kmem (patch-clamp): x-intercept of midpoint shift (∆p0.5) vs. concentration, native E. coli membrane, cytoplasmic side
Method: A pB10b vector was used to house and express the mscS gene in the triple-knockout E. coli strain MJF465 (mscS^−, mscL^−, mscK^−). The A98S MscS mutant, generated and partially characterized previously, was chosen for its higher sensitivity to inner leaflet drug partitioning.
Spheroplasts were generated as described previously. The experimental bath solution contained 400 mM sucrose, 200 mM KCl, 50 mM MgCl2, 5 mM CaCl2, and 5 mM HEPES and was titrated to pH 7.4 with KOH. Membrane patches were obtained on borosilicate glass pipettes and recorded at 30 mV pipette voltage set by a microelectrode amplifier. The midpoint of activation for channels in each patch was determined at two-minute intervals for the duration of the experiment via a 1 s ramp of saturating pressure. Analogs of platensimycin were pre-diluted in either ethanol or bath solution and perfused into the bath to achieve the desired concentration; control injections of equivalent volumes of ethanol had no effect on the midpoint of activation. Negative pressure (suction) was applied with the HSPC-1 high speed pressure clamp apparatus from ALA Scientific. Programming of the pressure protocols and data analysis was performed with the PClamp10 suite (Axon Instr., Foster City, CA, USA). The principle of lateral pressure measurements using two experimental systems, lipid monolayers and patch-clamp, is illustrated in Figure 1.
Similarly, the bulk-membrane partitioning coefficient (Kmem) was estimated from the values of relative increase in MscS activation pressure midpoint (p0.5) measured in patch-clamp experiments at different concentrations of intercalating agents by linear fit of Δp0.5 as a function of log(Cd).

[4] = Tensiometry at the air-water interface (Wilhelmy method); assay type: physicochemical; conditions: for log KAW (tens.): air-water partitioning coefficient, tensiometry, buffer pH 7.4; for Concentration at which changes of surface tension were detected: detected only at this concentration
Method: Surface tensions of subphase solutions with varying concentrations of platensimycin analogs were quantified using the Wilhelmy method with a piece of filter paper (Whatman, No. 1, 10.5 mm wide and 0.25 mm thick) used as a probe. The subphase buffer consisted of 200 mM KCl, 10 mM MgCl2, 5 mM CaCl2, 5 mM HEPES (Sigma-Aldrich, St. Louis, MO, USA) titrated to a pH of 7.4 with KOH. The pressure sensor (model 601, NIMA, Coventry, UK) was calibrated using a 100 mg weight. Water surface tension was measured to be […], after calibration. […] The surface activity and values for molecular area at the surface of the air-water interface (As), the partition coefficient at the air-water interface of the surface active molecule (KAW), and the membrane partitioning coefficient (Kmem), were determined as described previously.
The analysis of interfacial adsorption data was performed in the general framework of the Gibbs equation (1) dπ=∑Γidμi where dπ represents a small change in surface pressure, Γi is surface excess of component i and dμi is the small change of chemical potential of that component in the aqueous phase. For one adsorbing component, in an ideal case the Gibbs isotherm takes the form (2) dπ=RTΓd ln C where surface excess is defined as the surface density of molecules Γ = 1/(NAaS), NA is Avogadro’s number and aS is the area requirement for the molecule at the surface. The adsorbing substance gradually saturates the surface; the process that can be approximated by a Langmuir isotherm: (3) Γ=Γ∞lnKAW⋅C/1+KAW⋅C
Thus, beyond a certain bulk concentration, Γ approaches a constant value of Γ∞ and in that range of concentrations a linear relationship holds: (4) Γ∞=(1/RT)dπ/d ln C
To evaluate the partition coefficient for an air-water interface (KAW) and monolayers (Klip), the integral form of this equation attributed to Szyszkowski and previously applied to monolayers by Seelig and coworkers was used: (5) π=RTΓ∞ln(KAWC+1)
As was shown in Suomolainen 2004 [5], the x-intercept of the fitting line of experimental π-lnC curve would approximate the inverse partitioning coefficient 1/KAW, measured at the air-water interface.

[5] = Langmuir monolayer pressure-area isotherms; assay type: physicochemical, E. coli; conditions: for log Klip @ 20 mN/m, Measured: E. coli polar lipid monolayer, pH 7.4, ~20 °C; for Effective Molec. Area (ad): area taken by the drug in the monolayer, from slopes of log(ΔArea) vs. surface pressure; for log Klip @ 35 mN/m, Corrected: corrected to the monolayer-bilayer equivalence pressure 35 mN/m (Equation 6)
Method: All Langmuir monolayer experiments were done with a two-barrier rectangular 22 cm × 6 cm trough (MicroTrough XS, Kibron Inc., Helsinki, Finland) placed in an Airclean hood. A Dyneprobe metal alloy needle was used as the Wilhelmy plate. Lipids used were E. coli total polar lipid extract from Avanti Polar Lipids (Alabaster, AL, USA) dissolved in chloroform or hexane to a final concentration of 0.2 mg/mL. Distribution of lipids onto the subphase was accomplished using a gastight 50 µL Hamilton® syringe (Hamilton, Reno, NV, USA). The subphase buffer was identical to the tensiometry buffer. Pressure—Area isotherms (monolayers) were performed at room temperature (~20 °C) from 114 to 18 cm^2 at a barrier rate of 20 mm/min. For each analog, isotherms were measured at least four times at every concentration.
In Langmuir experiments, the value of the bulk-monolayer (Klip) partitioning coefficient was determined in a similar way, using the deviations of surface pressure of monolayers measured at constant area. […] However, at this compression, strongly intercalating substances produced pressure shifts beyond the collapse pressure of 45–47 mN/m, which forced us to score Δπ from surface pressure of 20 mN/m achieved at ~80 Å^2/molecule. Klip1 obtained in this expanded state was than corrected for the lateral pressure increase from π1 = 20 to π2 = 35 mN/m, which has the same form as Equation (7) in [5]: (6) ln(Klip2)=ln(Klip1)−(π2−π1)adNA/RT
Here ad is the area taken by the drug in the plane of the monolayer.
To estimate ad we assumed equilibrium between the drug in the subphase and in the monolayer and equated its chemical potentials in the two phases: (7) μ0+RTln(χd)=μ0σ+RTln(χdσ)+π⋅adNA
The right part with indexes σ represents the surface parameters of standard chemical potential µ0σ and drug mole fraction χdσ , whereas the left part represents the bulk parameters. Defining lnKlip = µ0σ −µ0 one can rearrange this equation as (8) lnKlip−lnχdσ−lnχd=π⋅adNA/RT
Differentiating with respect to π gives (9) −RTd(lnχdσ)/NAdπ=ad
Thus the molecular area of the drug defines the slope of χdσ , with which the drug re-partitions back to the subphase as surface pressure π increases. We further assume that at a given surface pressure, insertion of nd drug molecules into the film comprised of nL lipid molecules with initial area A0, should dilate the film by ΔA. (10) nd/nL=ΔA/A0⋅aL/ad
The parameter aL, the area per lipid at that particular pressure, is taken from the control pressure-area isotherm with no drug. The mole fraction of the drug in the monolayer χdσ = nd/(nd + nL) is related to the extent of monolayer dilation ΔA (11) ΔA=ad⋅nd=adnL⋅χdσ/1−χdσ
On the assumption that χdσ is small, ΔA is proportional to the mole fraction of the drug. In Equation (4) we substitute and obtain (12) −kTd(lnΔA)/dπ=ad
Thus, the molecular area of the drug can be determined from the logarithmic slope of ΔA on surface pressure. Once we know ad, we can introduce a correction to Klip due to lateral pressure change ([…]). In addition, we can estimate the molar ratio of drug-to-lipid, the mole fraction χdσ and the partitioning constant. From the extent of monolayer dilation at a constant surface pressure (chosen to be 20 mN/m), the apparent bulk-monolayer partitioning coefficient Klip could be independently estimated as Klip=χdσ/χd , where […] = Cd/55 represents the drug mole fraction in the subphase.

[6] = test system: S. aureus, MRSA; parameters: method as in PMID 17707686; conditions: Gram-positive; cited from earlier work
[7] = test system: E. coli; parameters: method as in PMID 17707686; conditions: Gram-negative; only when co-administered with Phe-Arg-β-naphthylamide dihydrochloride (PAβND), efflux pump inhibitor; cited from earlier work
[8] = test system: E. faecium, VRE; parameters: method as in PMID 17707686; conditions: Gram-positive; cited from earlier work

| SMILES | MIC for B. subtilis [1] | Biological / antibiotic activity [2] | Redistribution / return of activation midpoint [3] | log KAW (tens.) [4] | Concentration at which changes of surface tension were detected [4] | log Klip @ 20 mN/m, Measured [5] | Effective Molec. Area (ad) [5] | log Klip @ 35 mN/m, Corrected [5] | log Kmem (patch-clamp) [3] | Activity against S. aureus, MRSA [6] | Activity against B. subtilis [1] | Activity against E. coli [7] | Activity against E. faecium, VRE [8] | Effect on surface tension ([4]; up to 30 µM) | Effective Molec. Area (ad) ([5]; listed as platensimycin) | Initial unilateral insertion into the membrane relative to flipping across the membrane ([3]; sequential additions) | Concentration in the subphase at which presence is detectable on isotherms [5] |
| --- | --- | --- | --- | --- | --- | --- | --- | --- | --- | --- | --- | --- | --- | --- | --- | --- | --- |
| O=C(CCN(Cc1cccnc1)Cc1cccnc1)Nc1c(O)ccc(C(=O)O)c1O [G258] | >512 µg/mL | essentially no biological activity | relatively fast | 4.2 | 10^−4 M | 5.9 | 18 Å^2 | 5.6 |  |  |  |  |  |  |  |  |  |
| Cn1ccnc1CN(CCC(=O)Nc1c(O)ccc(C(=O)O)c1O)Cc1nccn1C [G262] | >512 µg/mL | essentially no biological activity | did not return back | 4.2 | 10^−4 M | 5.9 | 17 Å^2 | 5.6 |  |  |  |  |  |  |  |  |  |
| O=C(CCN(Cc1ccc2c(c1)OCO2)Cc1ccc2c(c1)OCO2)Nc1c(O)ccc(C(=O)O)c1O [G271] | >512 µg/mL | no antibiotic activity | did not return back | 4.5 |  | 6.1 | 18 Å^2 | 5.8 | 6.1 |  |  |  |  |  |  |  |  |
| CC12C[C@@]34C=CC(=O)[C@@](C)(CCC(=O)Nc5c(O)ccc(C(=O)O)c5O)C3[C@H](CC1C4)O2 (stereo partly drawn) [PL, platensimycin] | 2 µg/mL |  |  | 4.6 |  | 6.6 | 34 Å^2 | 6.1 | 5.0 | active | active | active | active | no visible effect | 31–34 Å^2 |  |  |
| CCCCN(CCCC)CCC(=O)Nc1c(O)ccc(C(=O)O)c1O [QD-06] | 128 µg/mL |  |  | 4.1 |  | 5.0 | 30 Å^2 | 4.5 | 5.5 |  |  |  |  |  |  |  |  |
| CC1(C)C2CC=C(CN(CCC(=O)Nc3c(O)ccc(C(=O)O)c3O)CC3=CCC4CC3C4(C)C)C1C2 [QD-11, myrtemycin] | 4 µg/mL |  |  | 6.1 |  | 6.7 | 31 Å^2 | 6.2 | 5.7 | active | active | active | active |  |  | five to six times faster | 10^−7 M |
| CC1(C)C2CC=C(CNCCC(=O)Nc3c(O)ccc(C(=O)O)c3O)C1C2 (stereo not drawn) [QL-03] | >256 µg/mL |  |  | 5.0 |  | 5.6 | 28 Å^2 | 5.2 | 6.1 |  |  |  |  |  |  |  |  |
